According to paper PMC4992826, “Male tarsi specific odorant-binding proteins in the diving beetle Cybister japonicus sharp” (Scientific Reports, 2016):

Experiments:
CjapOBP1 [1] = molecular target: T1, CjapOBP1 (Cybister japonicus, UniProt A0A1Q1N696); assay: Competitive fluorescence binding assay with 1-NPN as reporter; conditions: protein 5 μM, 1-NPN 2 μM, competitor up to 16 μM
T1 sequence (A0A1Q1N696 17-136): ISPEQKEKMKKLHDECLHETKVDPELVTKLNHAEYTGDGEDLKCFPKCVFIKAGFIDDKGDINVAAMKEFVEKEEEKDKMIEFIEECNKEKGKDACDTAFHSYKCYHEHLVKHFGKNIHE
Description: (§1) To characterize the ligand-binding properties of the two OBPs, we performed fluorescence binding assays with several chemicals having different structures using N-phenyl-1-naphthylamine (1-NPN) as a fluorescent reporter. In the absence of any information about potential semiochemicals for this insect, as well as for related species, we selected some common plant volatiles, such as citral, coniferyl aldehyde, eugenol and 2-isobutyl-3-mthoxypyrazine, and structurally similar compounds. 1-NPN binds CjapOBP1 and CjapOBP2 with dissociation constants of 3.3 and 2.1 μM respectively (Fig. 5A). Among the ligands tested, we identified a single good ligand for each protein, citral for CjapOBP1 and coniferyl aldehyde for CjapOBP2 (Fig. 5B,C).
(§2) Figure 5 Affinity of CjapOBPs to candidate chemical ligands. (A) Both CjapOBP1 and CjapOBP2 bind the fluorescent probe 1-NPN, with dissociation constants of 3.3 μM and 2.1 μM, respectively. (B) Competitive binding curves of selected ligands to the two CjapOBPs. Mixtures of proteins (5 μM) and 1-NPN (2 μM) were titrated with 1mM solutions of the ligands in methanol. […] (C) The chemical structures of the chemicals applied.
(§3) To measure the affinity of the fluorescent ligand N-phenyl-1-naphthylamine (1-NPN), a 2 μM solution of the protein in 50 mM Tris-HCl (pH 7.4) was titrated with aliquots of 1 mM 1-NPN in methanol to final concentrations of 1–16 μM. The probe was excited at 337 nm, and emission spectra were recorded between 380 and 450 nm. The affinity of other ligands was measured in competitive binding assays, using the protein and the fluorescent reporter 1-NPN at the concentration of 5 μM and 2 μM respectively, while increasing the final concentration of each competitor up to 16 μM. Dissociation constants for 1-NPN were evaluated from Scatchard plots of the binding data, and other ligands were calculated from the corresponding IC50 values, using the equation: KD = [IC50]/1+[1-NPN]/K1-NPN, [1-NPN] being the free concentration of 1-NPN and K1-NPN being the dissociation constant of the complex protein/1-NPN.

CjapOBP1 [2] = molecular target: T1, CjapOBP1; assay: Fluorescence binding assay, direct titration with 1-NPN; conditions: recombinant CjapOBP1, 2 μM protein in 50 mM Tris-HCl pH 7.4, titrated with 1-NPN 1–16 μM; Scatchard plot; read-out: dissociation constant
Description: as §1, §2
(§4) To measure the affinity of the fluorescent ligand N-phenyl-1-naphthylamine (1-NPN), a 2 μM solution of the protein in 50 mM Tris-HCl (pH 7.4) was titrated with aliquots of 1 mM 1-NPN in methanol to final concentrations of 1–16 μM. […]

CjapOBP2 [3] = molecular target: T2, CjapOBP2 (Cybister japonicus, UniProt A0A1Q1N694); assay: as above; conditions: recombinant CjapOBP2, 2 μM protein in 50 mM Tris-HCl pH 7.4, titrated with 1-NPN 1–16 μM; Scatchard plot; read-out: dissociation constant
T2 sequence (A0A1Q1N694 entry or part of it): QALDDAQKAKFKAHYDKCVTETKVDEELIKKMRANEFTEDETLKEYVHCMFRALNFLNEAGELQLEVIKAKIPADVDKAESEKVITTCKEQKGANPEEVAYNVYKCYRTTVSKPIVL
Description: as §1, §2, §4

CjapOBP2 [4] = molecular target: T2, CjapOBP2; assay: Competitive fluorescence binding assay with 1-NPN as reporter; conditions: protein 5 μM, 1-NPN 2 μM, competitor up to 16 μM
Description: as §1, §2, §3

SMILES	binding to CjapOBP2 (displacement of 1-NPN) (CjapOBP2 [4])	other results
CC(C)=CCCC(C)=CC=O (mixture of isomers) [citral]		binding to CjapOBP1 (displacement of 1-NPN) (CjapOBP1 [1]): good ligand
c1ccc(Nc2cccc3ccccc23)cc1 [1-NPN, N-phenyl-1-naphthylamine]		Kd (CjapOBP1 [2]): 3300 nM; Kd (CjapOBP2 [3]): 2100 nM
COc1cc(/C=C/C=O)ccc1O [coniferyl aldehyde]	good ligand	
COc1cc(CCC(=O)O)ccc1O [dihydroferulic acid]	did not show appreciable binding	
C=CCc1ccc(O)c(OC)c1 [eugenol]	did not show appreciable binding	
CO/C(C=O)=C\c1ccccc1 [α-methoxycinnamaldehyde]	did not show appreciable binding	
